# PMC5702897 (CPT: Pharmacometrics & Systems Pharmacology, 2017)
# Where two headings read alike, the source gives them in different places.
# Columns and labels:
# [1] = 15 to 450 mg given in fasted state; cited from earlier work
# [2] = weakly basic compound; cited from earlier work
# [3] = 40 mg single dose, healthy volunteers, cited from earlier work
smiles,measurement,setting,value
"CS(=O)(=O)N1CCN(Cc2cc3nc(-c4cccc5[nH]ncc45)nc(N4CCOCC4)c3s2)CC1 [pictilisib, Pictilisib]","Absorption rate constant (Ka), typical value","PPI=0, Fasted",2.63 h⁻¹
same,"Absorption rate constant (Ka), typical value","PPI=0, Fed",0.297 h⁻¹
same,"Absorption rate constant (Ka), typical value","PPI=1, Fasted",1.361 h⁻¹
same,"Absorption rate constant (Ka), typical value","PPI=1, Fed",0.154 h⁻¹
same,Ka as percent of the fasted state value,both PPI and food present,about 6%
same,"Absorption lag time (Tlag), typical value","healthy volunteers, 40 mg",0.47 H
same,"Central volume (Vc/F), typical value","healthy volunteers, 40 mg",304.9 L
same,"Peripheral volume (Vp/F), typical value","healthy volunteers, 40 mg",175.9 L
same,BSV of absorption lag time (Tlag),"human, in vivo",3.00%
same,BSV of central volume (Vc/F),"human, in vivo",37.7%
same,BSV of absorption rate constant (Ka),one value for all four states,51.9%
same,decrease in Ka with PPI,regardless of food,~50%
same,dose proportionality of PK,[1],dose‐proportionality
same,pKa (first value),[2],4.2
same,median AUCinf,[3]; fasted with PPI (rabeprazole),906 ng·h/mL
same,median AUCinf,[3]; fasted,"1,760 ng/mL*h"
same,median AUCinf,[3]; fed (high-fat food),"2,070 ng/mL*h"
same,median AUCinf,[3]; fed with PPI (rabeprazole),"1,180 ng/mL*h"
